ChEMBL document CHEMBL5154800, “Identification of N, C-capped di- and tripeptides as selective immunoproteasome inhibitors” (Eur J Med Chem, 2022)
Non-standard residues stand in square brackets, D forms with d. Residues, ends and D or L forms follow the SMILES beside them. *: point of attachment. 4Amb = NCc1ccc(C(=O)O)cc1; NHtBu = CC(C)(C)N*; ClAc = O=C(CCl)*; βAla = NCCC(=O)O

System: HT-29
Test: Antiproliferative activity against human HT-29 cells assessed as growth inhibition at 0.2 uM measured after 72 hrs by MTT assay
Assay type: functional
Conditions: read-out: GI
`Cc1ccc(CNC(=O)[C@H](Cc2ccccc2)NC(=O)[C@H](CCC(=O)NC(C)(C)C)NC(=O)CCNC(=O)CCl)cc1` showed an inhibition of growth at 0.2 µM of less than 20%. For `Cc1ccc(/C=C(\C#N)C(=O)NCCC(=O)N[C@@H](CCC(=O)NC(C)(C)C)C(=O)N[C@@H](Cc2ccccc2)C(=O)NCc2ccc(C)cc2)cc1`, the inhibition of growth at 0.2 µM was less than 20%. In the case of `CC(C)(C)NC(=O)CC[C@H](NC(=O)CCNC(=O)CCl)C(=O)N[C@@H](Cc1ccccc1)C(=O)NCc1ccc2ccccc2c1`, the inhibition of growth at 0.2 µM is reported as less than 20%. Work on `Cc1ccc(CNC(=O)[C@H](Cc2cccc(F)c2)NC(=O)[C@H](CCC(=O)NC(C)(C)C)NC(=O)CCNC(=O)CCl)cc1` yielded an inhibition of growth at 0.2 µM of less than 20%. In the case of `Cc1ccc(CNC(=O)[C@H](Cc2ccccc2)NC(=O)[C@H](CCC(=O)NC(C)(C)C)NC(=O)[C@H](CNC(=O)CCl)NC(=O)C(=O)c2c[nH]c3ccccc23)cc1`, the inhibition of growth at 0.2 µM is reported as less than 20%.

System: DOHH-2
Test: Antiproliferative activity against human DOHH-2 cells assessed as growth inhibition at 0.2 uM measured after 72 hrs by MTT assay
Assay type: functional
Conditions: read-out: GI
With `Cc1ccc(CNC(=O)[C@H](Cc2ccccc2)NC(=O)[C@H](CCC(=O)NC(C)(C)C)NC(=O)CCNC(=O)CCl)cc1` the inhibition of growth at 0.2 µM was 36%. For `Cc1ccc(/C=C(\C#N)C(=O)NCCC(=O)N[C@@H](CCC(=O)NC(C)(C)C)C(=O)N[C@@H](Cc2ccccc2)C(=O)NCc2ccc(C)cc2)cc1`, the inhibition of growth at 0.2 µM was less than 20%. Work on `CC(C)(C)NC(=O)CC[C@H](NC(=O)CCNC(=O)CCl)C(=O)N[C@@H](Cc1ccccc1)C(=O)NCc1ccc2ccccc2c1` yielded an inhibition of growth at 0.2 µM of less than 20%. Work on `Cc1ccc(CNC(=O)[C@H](Cc2cccc(F)c2)NC(=O)[C@H](CCC(=O)NC(C)(C)C)NC(=O)CCNC(=O)CCl)cc1` yielded an inhibition of growth at 0.2 µM of less than 20%. For `Cc1ccc(CNC(=O)[C@H](Cc2ccccc2)NC(=O)[C@H](CCC(=O)NC(C)(C)C)NC(=O)[C@H](CNC(=O)CCl)NC(=O)C(=O)c2c[nH]c3ccccc23)cc1`, the inhibition of growth at 0.2 µM was less than 20%.

System: not listed separately
Test: Selectivity ratio of IC50 for inhibition of 20S proteasome beta 5c subunit (unknown origin) to IC50 for inhibition of 20S proteasome subunit beta-5i
Conditions: not given
For `Cc1[nH]c2ccc(CNC(=O)[C@H](Cc3ccccc3)NC(=O)[C@H](CCC(=O)NC(C)(C)C)NC(=O)CCNC(=O)CCl)cc2c1C`, the Ratio IC50 was 27. Work on `COC(=O)c1ccc(CNC(=O)[C@H](Cc2ccccc2)NC(=O)[C@H](CCC(=O)NC(C)(C)C)NC(=O)CCNC(=O)CCl)cc1` ({ClAc-βAla}-Glu(NHtBu)-Phe-[4Amb]-OMe) yielded a Ratio IC50 of 6. `CC(C)(C)NC(=O)CC[C@H](NC(=O)CCNC(=O)CCl)C(=O)N[C@@H](Cc1ccccc1)C(=O)NCc1ccccc1C(F)(F)F` gave a Ratio IC50 greater than 19. In the case of `COc1cccc(CNC(=O)[C@H](Cc2ccccc2)NC(=O)[C@H](CCC(=O)NC(C)(C)C)NC(=O)CCNC(=O)CCl)c1`, the Ratio IC50 is reported as 11. `Cc1ccc(CNC(=O)[C@H](Cc2ccccc2)NC(=O)[C@H](CCC(=O)NC(C)(C)C)NC(=O)CCNC(=O)CCl)cc1` showed a Ratio IC50 of 12. For `Cc1ccc(/C=C(\C#N)C(=O)NCCC(=O)N[C@@H](CCC(=O)NC(C)(C)C)C(=O)N[C@@H](Cc2ccccc2)C(=O)NCc2ccc(C)cc2)cc1`, the Ratio IC50 was 9. `CC(C)(C)NC(=O)CC[C@H](NC(=O)CCNC(=O)CCl)C(=O)N[C@@H](Cc1ccccc1)C(=O)NCc1ccc2ccccc2c1` gave a Ratio IC50 of 15. Compound `Cc1ccc(CNC(=O)[C@H](Cc2cccc(F)c2)NC(=O)[C@H](CCC(=O)NC(C)(C)C)NC(=O)CCNC(=O)CCl)cc1` has a Ratio IC50 of 20. In the case of `Cc1ccc(CNC(=O)[C@H](Cc2ccccc2)NC(=O)[C@H](CCC(=O)NC(C)(C)C)NC(=O)[C@H](CNC(=O)CCl)NC(=O)C(=O)c2c[nH]c3ccccc23)cc1`, the Ratio IC50 is reported as 2.

Molecular target: T1, Proteasome Macropain subunit MB1 (Homo sapiens, UniProt P28074)
T1 sequence (P28074 whole entry): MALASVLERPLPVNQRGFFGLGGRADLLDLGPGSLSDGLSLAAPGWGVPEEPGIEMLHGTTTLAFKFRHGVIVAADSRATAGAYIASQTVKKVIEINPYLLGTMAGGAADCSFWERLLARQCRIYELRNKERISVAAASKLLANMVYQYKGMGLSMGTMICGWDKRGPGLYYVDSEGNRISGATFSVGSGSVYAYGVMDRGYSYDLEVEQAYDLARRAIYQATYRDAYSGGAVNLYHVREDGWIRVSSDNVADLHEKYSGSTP
Test: Inhibition of 20S proteasome subunit beta-5c (unknown origin) using Ac-WLA-AMC as substrate and measured after 30 mins
Conditions: not given
`CC(C)(C)NC(=O)CC[C@H](NC(=O)CCNC(=O)CCl)C(=O)N[C@@H](Cc1ccccc1)C(=O)NCc1ccccc1C(F)(F)F` showed an IC50 greater than 5 µM.

System: MCF7
Test: Antiproliferative activity against human MCF7 cells assessed as growth inhibition at 0.2 uM measured after 72 hrs by MTT assay
Assay type: functional
Conditions: read-out: GI
Compound `Cc1ccc(CNC(=O)[C@H](Cc2ccccc2)NC(=O)[C@H](CCC(=O)NC(C)(C)C)NC(=O)CCNC(=O)CCl)cc1` has an inhibition of growth at 0.2 µM of less than 20%. `Cc1ccc(/C=C(\C#N)C(=O)NCCC(=O)N[C@@H](CCC(=O)NC(C)(C)C)C(=O)N[C@@H](Cc2ccccc2)C(=O)NCc2ccc(C)cc2)cc1` showed an inhibition of growth at 0.2 µM of less than 20%. Work on `CC(C)(C)NC(=O)CC[C@H](NC(=O)CCNC(=O)CCl)C(=O)N[C@@H](Cc1ccccc1)C(=O)NCc1ccc2ccccc2c1` yielded an inhibition of growth at 0.2 µM of less than 20%. `Cc1ccc(CNC(=O)[C@H](Cc2cccc(F)c2)NC(=O)[C@H](CCC(=O)NC(C)(C)C)NC(=O)CCNC(=O)CCl)cc1` gave an inhibition of growth at 0.2 µM of less than 20%. In the case of `Cc1ccc(CNC(=O)[C@H](Cc2ccccc2)NC(=O)[C@H](CCC(=O)NC(C)(C)C)NC(=O)[C@H](CNC(=O)CCl)NC(=O)C(=O)c2c[nH]c3ccccc23)cc1`, the inhibition of growth at 0.2 µM is reported as less than 20%.

System: Pfeiffer
Test: Antiproliferative activity against human Pfeiffer cells assessed as growth inhibition at 0.2 uM measured after 72 hrs by MTT assay
Assay type: functional
Conditions: read-out: GI
Compound `Cc1ccc(CNC(=O)[C@H](Cc2ccccc2)NC(=O)[C@H](CCC(=O)NC(C)(C)C)NC(=O)CCNC(=O)CCl)cc1` has an inhibition of growth at 0.2 µM of less than 20%. `Cc1ccc(/C=C(\C#N)C(=O)NCCC(=O)N[C@@H](CCC(=O)NC(C)(C)C)C(=O)N[C@@H](Cc2ccccc2)C(=O)NCc2ccc(C)cc2)cc1` gave an inhibition of growth at 0.2 µM of 29%. Compound `CC(C)(C)NC(=O)CC[C@H](NC(=O)CCNC(=O)CCl)C(=O)N[C@@H](Cc1ccccc1)C(=O)NCc1ccc2ccccc2c1` has an inhibition of growth at 0.2 µM of 25%. For `Cc1ccc(CNC(=O)[C@H](Cc2cccc(F)c2)NC(=O)[C@H](CCC(=O)NC(C)(C)C)NC(=O)CCNC(=O)CCl)cc1`, the inhibition of growth at 0.2 µM was 29%. For `Cc1ccc(CNC(=O)[C@H](Cc2ccccc2)NC(=O)[C@H](CCC(=O)NC(C)(C)C)NC(=O)[C@H](CNC(=O)CCl)NC(=O)C(=O)c2c[nH]c3ccccc23)cc1`, the inhibition of growth at 0.2 µM was 32%.

Molecular target: T2, Proteasome subunit beta type-8 (Homo sapiens, UniProt P28062)
T2 sequence (P28062 whole entry): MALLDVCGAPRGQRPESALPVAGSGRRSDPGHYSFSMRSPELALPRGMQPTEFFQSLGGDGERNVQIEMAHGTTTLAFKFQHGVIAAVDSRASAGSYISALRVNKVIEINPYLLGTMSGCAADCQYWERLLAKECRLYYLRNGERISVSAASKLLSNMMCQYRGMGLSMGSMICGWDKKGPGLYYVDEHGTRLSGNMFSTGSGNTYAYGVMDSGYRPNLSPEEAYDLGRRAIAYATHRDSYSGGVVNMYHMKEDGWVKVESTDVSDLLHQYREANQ
Test: Inhibition of 20S proteasome subunit beta-5i (unknown origin) using Ac-ANW-AMC as substrate and measured after 30 mins
Conditions: not given
`Cc1[nH]c2ccc(CNC(=O)[C@H](Cc3ccccc3)NC(=O)[C@H](CCC(=O)NC(C)(C)C)NC(=O)CCNC(=O)CCl)cc2c1C` gave an IC50 of 0.0365 µM. Work on `Cc1ccc(CNC(=O)[C@H](Cc2cccc(F)c2)NC(=O)[C@H](CCC(=O)NC(C)(C)C)NC(=O)CCNC(=O)CCl)cc1` yielded an IC50 of 0.00651 µM.

System: HCT-116
Test: Antiproliferative activity against human HCT-116 cells assessed as growth inhibition at 0.2 uM measured after 72 hrs by MTT assay
Assay type: functional
Conditions: read-out: GI
`Cc1ccc(CNC(=O)[C@H](Cc2ccccc2)NC(=O)[C@H](CCC(=O)NC(C)(C)C)NC(=O)CCNC(=O)CCl)cc1` showed an inhibition of growth at 0.2 µM of 49%. Work on `Cc1ccc(/C=C(\C#N)C(=O)NCCC(=O)N[C@@H](CCC(=O)NC(C)(C)C)C(=O)N[C@@H](Cc2ccccc2)C(=O)NCc2ccc(C)cc2)cc1` yielded an inhibition of growth at 0.2 µM of 41%. Work on `CC(C)(C)NC(=O)CC[C@H](NC(=O)CCNC(=O)CCl)C(=O)N[C@@H](Cc1ccccc1)C(=O)NCc1ccc2ccccc2c1` yielded an inhibition of growth at 0.2 µM of 39%. Work on `Cc1ccc(CNC(=O)[C@H](Cc2cccc(F)c2)NC(=O)[C@H](CCC(=O)NC(C)(C)C)NC(=O)CCNC(=O)CCl)cc1` yielded an inhibition of growth at 0.2 µM of 35%. In the case of `Cc1ccc(CNC(=O)[C@H](Cc2ccccc2)NC(=O)[C@H](CCC(=O)NC(C)(C)C)NC(=O)[C@H](CNC(=O)CCl)NC(=O)C(=O)c2c[nH]c3ccccc23)cc1`, the inhibition of growth at 0.2 µM is reported as 44%.
